Source: PMC7724566, “Prospects for Clinical Development of Stat5 Inhibitor IST5-002: High Transcriptomic Specificity in Prostate Cancer and Low Toxicity In Vivo” (Cancers, 2020)
pIC50: −log10 of the molar value.

System: Stat5
Experiment: Stat5 phosphorylation in cancer cells (summary)
Format: cell-based, human
Details: read-out: IC50, inhibition of Stat5 phosphorylation, range over cell lines
Description: Down-regulation of Stat5 phosphorylation by IST5 can theoretically be caused by IST5 blocking Stat5 monomer docking to the activated receptor-Jak2 complex (Figure 1) and/or by IST5 inhibition of Jak2 kinase activity. […] To further investigate whether IST5 is able to disrupt dimerization of Stat5 molecules, we employed two separate cell-based assays. […] Because both phosphorylation and dimerization of Stat5 were inhibited at similar concentrations of IST5, it is difficult to determine whether disruption of Stat5 dimerization by IST5 is caused by suppression of Stat5 phosphorylation or a direct effect of IST5 in hindering Stat5 dimer-formation or both events occurring at the same time in the cell. However, it is known that heteromolecular interactions are easier to disrupt than interactions between two Stat5 monomers implying that the primary mechanism of action of IST5 may be suppression of Stat5 docking to the receptor-kinase complex. It is important to note that bypassing tyrosine kinases responsible for Stat5 phosphorylation by utilizing direct Stat5 inhibitor would be advantageous for therapy development for Stat5-regulated cancers because targeting Stat5 directly is likely to cause less off-target side effects than targeting kinases or cell surface receptors.

**Q.** With `O=P(O)(O)OCC1OC(n2cnc3c(NCc4ccccc4)ncnc32)C(O)C1O` (stereo not shown) [IST5] as the compound, how does the pIC50 read?
**A.** 5.89 to 5.96
